The test system of this assay is MIN6 cell masses (spheroids). As to the kind of experiment: Fluorescent imaging of tumor cell masses (spheroids) of MIN6 cells with mixed fluorescent glucose derivative solutions. It counts as cell-based, mouse. Particulars: 3 minutes, 6 minutes after start of washout. Here is the method:
A fluorescent mixed solution containing 100 μM CDG, 100 μM 2-NBDLG, and 20 μM 2-TRLG (CDG/2-NBDLG/2-TRLG) was administered at 37° C. for 3 minutes to MIN6 cell masses (spheroids) at culture day 17, and fluorescent imaging was conducted.
10 μL of a culture solution containing MIN6 cells suspended at a density of 6×10^4 cells/mL was added dropwise onto each glass cover slip, and then, the glass cover slip was left standing for 40 minutes in an incubator for fixation to the glass surface. The cells were cultured by the addition of 3 mL of a culture solution (600 cells/slip). Spheroids were formed by continuing the culture for 15 to 17 days. Half the amount of the culture solution was replaced with a fresh one once every three days.
The MIN6 cells used were cells kindly provided by professor Junichi Miyazaki (Osaka University) and subcultured 6 to 10 times. Half the amount of the culture solution was replaced with a fresh one once every two days.
13.4 g of high glucose-containing Dulbecco's modified Eagle's Medium (DMEM-HG) (Sigma-Aldrich, #D5648), 3.4 g of NaHCO3, and 5 μL of 2-mercaptoethanol were dissolved in 1 L of ultrapure water, and the pH of the solution was adjusted to 7.30 to 7.35 in a CO2 incubator of 37° C. The culture solution was supplemented with fetal bovine serum (Hyclone, Cat# SH30070.03) at a final concentration of 10% and penicillin-streptomycin at a final concentration of 0.5%.
The whole amount of the 0.5 mg CDG vial was recovered using 0.73 mL in total of 10% DMSO and dissolved by addition to 7.0 ml of a KRB solution for image acquisition according to the method described in Non Patent Literature 2.
The whole amount of one 0.5 mg 2-NBDLG vial was dissolved in 7.3 mL of a KRB solution for image acquisition.
The CDG solution and the 2-NBDLG solution were mixed at a ratio of 1:1. The whole amount of the 0.2 mg 2-TRLG vial was recovered using 130 μL in total of DMSO and mixed with 13 ml of the CDG+2-NBDLG mixed solution according to the method described in Non Patent Literature 2 (final concentration: 100 μM CDG+100 μM 2-NBDLG+20 μM 2-TRLG mixed solution). […]
The glass cover slip with the cultured MIN6 cells was transferred into the KRB solution for image acquisition in a perfusion chamber loaded on a stage of a fluorescence microscope, followed by measurement. […]
The KRB solution for image acquisition was warmed in advance in an aluminum syringe heater and supplied to the perfusion chamber through hydrostatic pressure. […] Immediately before being introduced to the perfusion chamber, the solution was rewarmed via an inline heater so that the actually measured temperature of the perfusate in an observation region in the chamber was adjusted to 36±1° C. […]

Turning to `O=c1ccc2ccc(NC3C(O)OC(CO)[C@@H](O)[C@@H]3O)cc2o1` (stereo partly drawn) [CDG, 2-deoxy-2-(2-oxo-2H-chromen-7-yl)amino-D-glucose], the “uptake into cells of MIN6 spheroids, intracellular localization” value (100 μM CDG+100 μM 2-NBDLG+20 μM 2-TRLG mixed solution, culture day 17) is reported as “not only taken into the cytoplasm but unexpectedly taken into the nucleus”. For `O=c1ccc2ccc(NC3C(O)OC(CO)[C@H](O)[C@H]3O)cc2o1` (stereo partly drawn) [CLG, 2-deoxy-2-(2-oxo-2H-chromen-7-yl)amino-L-glucose], the “uptake into cells of MIN6 spheroids, intracellular localization” value (100 μM CLG+100 μM 2-NBDLG+20 μM 2-TRLG mixed solution, culture day 15) was “strongly taken not only into the cytoplasm but into the nucleus”.
